Holding throughout (assay type): in vivo
The subject of one experiment is panel of trained tasters. The experiment is described as follows: Taste evaluation in water. As for the experimental part: A one percent cut of each compound of Examples 1-13 was prepared first. The hydrochloride salts were cut directly into water, while the free base examples were cut into ethanol. Next, 100 ml of a 1 ppm, 10 ppm and 20 ppm solution were prepared. The 1 ppm standards were prepared by addition of 0.0126 ml (cut in ethanol) or 0.01 ml (cut in water) to an amber bottle followed by dilution to 100 g total sample weight using water. The 10 and 20 ppm solutions were prepared similarly, but using 0.126 ml ethanol/0.1 ml water or 0.252 ml ethanol/0.2 ml water of the 1% cuts respectively. Next, the samples were evaluated by a panel of trained tasters.

Experiment [1] concerns bench-top tasting panel. Briefly: Bain marie (hot water bath) test with chicken broth. The settings on record: hot water bath 150° F. for 4 hours, Example 3 3 ppm, Example 13 2 ppm (table), Example 10 3 ppm, Example 9 2 ppm; for umami strength ranking: MSG 0.20%, 7 panelists. The protocol: (§1) Umami evaluations were done in dry noodle seasoning, chicken broth, retorted chicken broth, cheese sauce and salted potato chip applications. Each application was prepared using MSG, the experimental umami tastant and a blank which contained neither MSG nor the experimental umami tastant. Next, using a bench-top tasting panel (consisting of 7 to 14 panelists), panelists were asked to record the sensory attribute differences between the control (blank), the MSG application and the application containing the experimental umami tastant. These sensory attributes include umami, saltiness, bitterness, off-notes, mouth feel attribute, lingering attribute and flavor profile differences.
Chicken broth was prepared as previously described in example 15. Compounds from Examples 3, 9, 10 and 13 were added to the chicken broth in the concentrations described below and placed in a hot water bath (150° F.) for 4 hours prior to taste evaluation.

Experiment [2] relates to bench-top tasting panel. Briefly: Umami evaluation on salted potato chips (Example 22). Conditions: 1% salted potato chips, Example 3 10 ppm, Example 13 10 ppm, Example 10 6 ppm, Example 9 10 ppm; for umami strength ranking: MSG 0.2%, 9 panelists. The protocol: as §1
The potato chips were prepared as previously described in example 19 and spiked with compounds from Examples 3, 9, 10 and 13 as described below.

Experiment [3] concerns bench-top tasting panel. The experiment is described as follows: Umami evaluation in retorted chicken broth (Example 20). Conditions: Example 3 4 ppm, Example 13 3 ppm, Example 10 4 ppm, Example 9 3 ppm; for umami strength ranking: MSG 0.20%, 9 panelists. As for the experimental part:
as §1
The procedure for the preparation of the retorted chicken broth is the same as in example 16. Compounds from Examples 3, 9, 10 and 13 were spiked individually into the chicken broth generating six samples, as described below.

The text below walks through data of US10178875B2, “Methods of modifying or imparting taste using organic compounds” (Givaudan, S.A., priority 2013, dated 2019).

As for `Cl.c1ccc(SCCc2ccccn2)cc1` [Example 2, 2-(2-(PHENYLTHIO)ETHYL)PYRIDINE HYDROCHLORIDE], the aroma result in the experiment on panel of trained tasters (1 ppm in water), with panel of trained tasters (10 ppm in water) and with panel of trained tasters (20 ppm in water) was “green” in each case. Moreover, the taste result is recorded as “weak umami, very weak astringent” in the experiment with panel of trained tasters (1 ppm in water); “moderate umami, very weak: salty, bitter,” in the experiment on panel of trained tasters (10 ppm in water); “moderate umami, weak: salty, bitter, astringent” in the experiment with panel of trained tasters (20 ppm in water).
For the molecule `COC(=O)c1ccc(SCCc2ccccn2)cc1.Cl` [Example 3, METHYL 4-((2-(PYRIDIN-2-YL)ETHYL)THIO)BENZOATE HYDROCHLORIDE], the “flavor profile described by panelists” value with bench-top tasting panel [1] is recorded as “a bitter, limited umami flavor profile”; with bench-top tasting panel [2], “a slight to moderate level of umami along with strong salty profile”; in the experiment with bench-top tasting panel [3], “a sweeter flavor profile with a build up of umami character”. In addition, the umami strength ranking result in the experiment with bench-top tasting panel [1] is recorded as “MSG>2 ppm example 9>3 ppm Example 10=4 ppm Example 13>Blank chicken broth>3 ppm Example 3”; in the experiment with bench-top tasting panel [2], 10 ppm Example 3>10 ppm Example 9>MSG>10 ppm Example 13>blank>6 ppm Example 10; in the experiment on bench-top tasting panel [3], “MSG>3 ppm example 9>3 ppm Example 13>4 ppm Example 3>Blank retorted chicken broth>4 ppm Example 10”. The taste result in the experiment with panel of trained tasters (1 ppm in water) is “weak to moderate umami, very weak: bitter,”; with panel of trained tasters (10 ppm in water), “moderate umami, weak: bitter, metallic,”; in the experiment on panel of trained tasters (20 ppm in water), “moderate to strong umami, weak: bitter,”. The aroma result in the experiment with panel of trained tasters (10 ppm in water) and in the experiment on panel of trained tasters (20 ppm in water) was “bloody metallic” throughout.
For the molecule `Cc1ccc(SCCc2ccccn2)cc1.Cl` [Example 4, 2-(2-(P-TOLYLTHIO)ETHYL)PYRIDINE HYDROCHLORIDE], the taste entry is “very weak: umami, bitter, astringent” in the experiment on panel of trained tasters (1 ppm in water); “weak: umami, bitter, astringent, very weak” with panel of trained tasters (10 ppm in water); “Weak: umami, bitter, metallic, sour, astringent” in the experiment with panel of trained tasters (20 ppm in water). The aroma result in the experiment on panel of trained tasters (10 ppm in water) and with panel of trained tasters (20 ppm in water) was “green” throughout.
On to `Cc1ccccc1SCCc1ccccn1.Cl` [Example 5, 2-(2-(O-TOLYLTHIO)ETHYL)PYRIDINE HYDROCHLORIDE], for which the aroma entry with panel of trained tasters (1 ppm in water), with panel of trained tasters (10 ppm in water) and in the experiment on panel of trained tasters (20 ppm in water) was “green pepper” each time. Moreover, the taste result was “weak bitter, astringent, very weak metallic” with panel of trained tasters (1 ppm in water); “weak umami, very weak bitter” in the experiment with panel of trained tasters (10 ppm in water); “weak umami, very weak: bitter, astringent” in the experiment on panel of trained tasters (20 ppm in water).
Take `Oc1ccc(SCCc2ccccn2)cc1` [Example 6, 4-((2-(PYRIDIN-2-YL)ETHYL)THIO)PHENOL]: the aroma entry in the experiment on panel of trained tasters (1 ppm in water) is reported as “green”; in the experiment on panel of trained tasters (10 ppm in water) it was “Green, fruity”; with panel of trained tasters (20 ppm in water), “Green, fruity”. Also, the taste entry is given as “very weak: umami, astringent” in the experiment with panel of trained tasters (1 ppm in water); “weak: umami, bitter, astringent, very weak” in the experiment on panel of trained tasters (10 ppm in water); “weak: umami, bitter, astringent, very weak” in the experiment on panel of trained tasters (20 ppm in water).
For the molecule `Oc1ccccc1SCCc1ccccn1` [Example 7, 2-((2-(PYRIDIN-2-YL)ETHYL)THIO)PHENOL], the aroma entry in the experiment with panel of trained tasters (1 ppm in water), with panel of trained tasters (10 ppm in water) and in the experiment with panel of trained tasters (20 ppm in water) was “Green pepper” in each case. Besides, the taste entry in the experiment on panel of trained tasters (1 ppm in water) is “very weak: umami, salty, weak bitter”; in the experiment with panel of trained tasters (10 ppm in water), “weak to moderate umami, weak: bitter, metallic,”; with panel of trained tasters (20 ppm in water), “Weak to moderate umami, weak bitter, very”.
Turning to `COc1cccc(SCCc2ccccn2)c1` [Example 8, 2-(2-((3-METHOXYPHENYL)THIO)ETHYL)PYRIDINE], the aroma result in the experiment with panel of trained tasters (1 ppm in water) is “Green pepper, beany”; in the experiment with panel of trained tasters (10 ppm in water), “Green pepper”; in the experiment on panel of trained tasters (20 ppm in water), “Green pepper”. Also, the taste result with panel of trained tasters (1 ppm in water) is recorded as “very weak metallic, weak astringent”; with panel of trained tasters (10 ppm in water), “weak: umami, astringent, very weak: bitter,”; with panel of trained tasters (20 ppm in water), “weak: umami, very weak: bitter, metallic”.
For the molecule `COC(=O)c1ccccc1SCCc1ccccn1.Cl` [Example 9, METHYL 2-((2-(PYRIDIN-2-YL)ETHYL)THIO)BENZOATE HYDROCHLORIDE], the “flavor profile described by panelists” value in the experiment with bench-top tasting panel [1] was “a boost in saltiness along with a strong, full umami taste profile”; with bench-top tasting panel [2] it was “better mouthfeel, slight to moderate umami with an overall clean profile”; in the experiment on bench-top tasting panel [3], “a sweet, full umami profile”. Besides, the umami strength ranking entry with bench-top tasting panel [1] is listed as “MSG>2 ppm example 9>3 ppm Example 10=4 ppm Example 13>Blank chicken broth>3 ppm Example 3”; in the experiment with bench-top tasting panel [2], 10 ppm Example 3>10 ppm Example 9>MSG>10 ppm Example 13>blank>6 ppm Example 10; in the experiment on bench-top tasting panel [3], “MSG>3 ppm example 9>3 ppm Example 13>4 ppm Example 3>Blank retorted chicken broth>4 ppm Example 10”. Further, the taste entry is on record as “weak: umami, astringent, very weak: salty,” with panel of trained tasters (1 ppm in water); “moderate umami,, weak: salty, astringent, very” with panel of trained tasters (10 ppm in water); “moderate umami, weak: salty, astringent,” in the experiment on panel of trained tasters (20 ppm in water).
On to `Oc1cccc(SCCc2ccccn2)c1` [Example 10, 3-((2-(PYRIDIN-2-YL)ETHYL)THIO)PHENOL], for which the “flavor profile described by panelists” value was “mid/late umami along with a slight bitterness and off notes” with bench-top tasting panel [1]; “a nice salty, slight umami profile along with a slight offnote” with bench-top tasting panel [2]; “a green pepper aroma and was slightly bitter” in the experiment on bench-top tasting panel [3]. In addition, the umami strength ranking result is listed as “MSG>2 ppm example 9>3 ppm Example 10=4 ppm Example 13>Blank chicken broth>3 ppm Example 3” in the experiment with bench-top tasting panel [1], 10 ppm Example 3>10 ppm Example 9>MSG>10 ppm Example 13>blank>6 ppm Example 10 in the experiment on bench-top tasting panel [2] and “MSG>3 ppm example 9>3 ppm Example 13>4 ppm Example 3>Blank retorted chicken broth>4 ppm Example 10” in the experiment with bench-top tasting panel [3]. In addition, the aroma entry in the experiment on panel of trained tasters (1 ppm in water) was “green”; in the experiment on panel of trained tasters (20 ppm in water) it was “vegetable”. For the same molecule, the taste result in the experiment with panel of trained tasters (1 ppm in water) is “very weak bitter”; in the experiment on panel of trained tasters (10 ppm in water), “weak: umami, metallic, very weak: bitter,”.
For `c1ccc(CSCCc2ccccn2)cc1` [Example 11, 2-(2-(BENZYLTHIO)ETHYL)PYRIDINE], the aroma entry in the experiment with panel of trained tasters (1 ppm in water) is “phenolic”; in the experiment with panel of trained tasters (10 ppm in water) it was “Phenolic, spicy”; in the experiment on panel of trained tasters (20 ppm in water), “Phenolic, spicy”. For the same molecule, the taste result is recorded as “weak umami, very weak astringent” with panel of trained tasters (1 ppm in water); “weak umami, very weak astringent” in the experiment on panel of trained tasters (10 ppm in water); “moderate to strong umami, very weak bitter,” in the experiment with panel of trained tasters (20 ppm in water).
`Cc1cccc(SCCc2ccccn2)c1.Cl` [Example 12, 2-(2-(M-TOLYLTHIO)ETHYL)PYRIDINE HYDROCHLORIDE]: the taste entry in the experiment with panel of trained tasters (1 ppm in water) is on record as “weak: umami, astringent, very weak salty”; with panel of trained tasters (10 ppm in water) it was “moderate umami, weak: salty, astringent”; in the experiment with panel of trained tasters (20 ppm in water), “moderate to strong umami, weak: salty,”.
As to `COc1ccc(SCCc2ccccn2)cc1.Cl` [Example 13, 2-(2-((4-METHOXYPHENYL)THIO)ETHYL)PYRIDINE HYDROCHLORIDE], the “flavor profile described by panelists” value in the experiment with bench-top tasting panel [1] is “mid/late umami with some late onset bitterness”; in the experiment with bench-top tasting panel [2] it was “A good, salty, umami profile”; in the experiment on bench-top tasting panel [3], “a slightly sweet/slightly bitter profile”. The figures for the umami strength ranking result with bench-top tasting panel [1], in the experiment with bench-top tasting panel [2] and in the experiment on bench-top tasting panel [3] were “MSG>2 ppm example 9>3 ppm Example 10=4 ppm Example 13>Blank chicken broth>3 ppm Example 3”, 10 ppm Example 3>10 ppm Example 9>MSG>10 ppm Example 13>blank>6 ppm Example 10 and “MSG>3 ppm example 9>3 ppm Example 13>4 ppm Example 3>Blank retorted chicken broth>4 ppm Example 10”, respectively. In addition, the taste result is “Weak umami, very weak bitter, astringent” in the experiment on panel of trained tasters (1 ppm in water); “Moderate to strong umami, very weak: bitter,” in the experiment on panel of trained tasters (10 ppm in water); “Strong umami, very weak bitter” in the experiment on panel of trained tasters (20 ppm in water). In addition, the aroma entry in the experiment on panel of trained tasters (20 ppm in water) is recorded as “pyrazine”.
